Assay results as given in ChEMBL document CHEMBL1201862, “PubChem BioAssay data set” (2004).
Activity calls are given as the source filed them.

Key:
[1] = cytotoxicity in HEK-293T cells, dose response, cytotoxicity control for TCR NF-kB inhibitor project, luminescence, T-cell screen hits (AID 489026); type: functional, cell-based;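 also: cells exposed to compound about 14 hours before the viability readout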
[2] = Luminescence Cell-Based Dose Retest to Confirm Inhibitors of Cancer Stem Cells. [Related pubchem assays (depositor defined):AID2717, AID2721]; type: functional; conditions: Homo sapiens
[3] = microbe, parasite or virus in culture; type: functional; conditions: Mycobacterium tuberculosis
Melanocortin receptor 4 = Melanocortin receptor 4 (Homo sapiens, UniProt P32245); type: functional, cell-based;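 also: Cell-based assay with luminescence read-out, confirmatory dose-response testing for agonist activity of biased ligands at MC4R; human U2OS cells with tagged receptor and beta-arrestin; potency of agonists that increase receptor coupling to beta-arrestin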
[4] = biological target: T1, Ubiquitin-conjugating enzyme E2 N (Homo sapiens, UniProt P61088); type: functional
T1 sequence (P61088 whole entry): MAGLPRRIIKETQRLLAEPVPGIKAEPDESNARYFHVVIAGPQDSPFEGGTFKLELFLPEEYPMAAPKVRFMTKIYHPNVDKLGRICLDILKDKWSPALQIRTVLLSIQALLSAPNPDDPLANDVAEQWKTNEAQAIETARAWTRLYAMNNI

[5] = biological target: T2, DNA repair protein RAD52 homolog (Homo sapiens, UniProt P43351); type: functional, biochemical
T2 sequence (P43351 whole entry): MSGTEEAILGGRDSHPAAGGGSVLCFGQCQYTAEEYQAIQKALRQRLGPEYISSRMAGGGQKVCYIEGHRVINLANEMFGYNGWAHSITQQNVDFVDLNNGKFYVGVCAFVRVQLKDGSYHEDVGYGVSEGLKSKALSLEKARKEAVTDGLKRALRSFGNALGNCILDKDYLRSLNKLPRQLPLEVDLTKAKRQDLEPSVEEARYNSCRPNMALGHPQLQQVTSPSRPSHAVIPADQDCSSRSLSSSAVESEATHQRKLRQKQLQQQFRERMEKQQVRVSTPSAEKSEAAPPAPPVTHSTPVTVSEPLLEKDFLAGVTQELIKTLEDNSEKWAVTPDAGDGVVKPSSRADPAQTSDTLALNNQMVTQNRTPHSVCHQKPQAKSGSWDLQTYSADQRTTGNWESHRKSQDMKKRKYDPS

[6] = biological target: T1, Ubiquitin-conjugating enzyme E2 N; type: functional; remark: listed apart in the source
Bcl-2-related protein A1 = biological target: T3, Bcl-2-related protein A1 (Mus musculus, UniProt Q07440); type: functional;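 also: confirmatory dose–response counterscreen on Bfl-1, used to check hits from a UBC13 polyubiquitin inhibitor campaign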
T3 sequence (Q07440 whole entry): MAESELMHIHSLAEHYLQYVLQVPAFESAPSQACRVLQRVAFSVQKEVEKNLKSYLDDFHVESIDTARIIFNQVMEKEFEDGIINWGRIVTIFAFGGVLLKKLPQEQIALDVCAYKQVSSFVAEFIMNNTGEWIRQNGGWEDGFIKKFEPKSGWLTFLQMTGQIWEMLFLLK

Streptococcus = experiment: Group A Streptococcus viability loss, dose response, counter-screen for streptokinase expression inhibitor project, luminescence, BacTiterGlo (AID 1915); type: functional, organism-based;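 also: potency for reduction of bacterial viability or growth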
[7] = tested on: Streptococcus sp. 'group A'; experiment: growth inhibition of control SK(-) GAS strain, dose response, counter-screen for streptokinase expression inhibitor project, luminescence, kanamycin, BacTiterGlo, confirmation (AID 1900); type: functional, organism-based
Streptokinase A = biological target: T4, Streptokinase A (Streptococcus pyogenes serotype M1, UniProt P10520); experiment: S. pyogenes streptokinase expression inhibitors, potency, dose response, plasminogen activation absorbance, OD405 (AID 1914); type: functional, Streptococcus pyogenes M1 GAS;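 also: secreted streptokinase activity via plasminogen activation per viability signal from cell pellet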
T4 sequence (P10520 whole entry): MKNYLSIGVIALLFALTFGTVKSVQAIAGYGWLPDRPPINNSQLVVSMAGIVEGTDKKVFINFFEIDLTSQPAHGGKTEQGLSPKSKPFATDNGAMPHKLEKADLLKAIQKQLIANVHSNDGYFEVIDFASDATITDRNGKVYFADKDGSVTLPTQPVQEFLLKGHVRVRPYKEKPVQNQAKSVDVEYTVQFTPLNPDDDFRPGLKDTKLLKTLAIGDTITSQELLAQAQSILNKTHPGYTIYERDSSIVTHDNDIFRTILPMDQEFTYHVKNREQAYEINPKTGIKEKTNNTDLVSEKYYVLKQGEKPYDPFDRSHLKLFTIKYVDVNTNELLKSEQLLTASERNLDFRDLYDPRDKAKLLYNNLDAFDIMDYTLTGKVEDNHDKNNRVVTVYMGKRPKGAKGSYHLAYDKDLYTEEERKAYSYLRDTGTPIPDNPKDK

[8] = biological target: Dual specificity tyrosine-phosphorylation-regulated kinase 1A (Rattus norvegicus, UniProt Q63470); type: biochemical, Homo sapiens
Cytochrome P450 3A4 = Cytochrome P450 3A4 (Homo sapiens, UniProt P08684);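 also: CYP3A4 tested as one member of a cytochrome P450 panel screen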
Cytochrome P450 2C9 = Cytochrome P450 2C9 (Homo sapiens, UniProt P11712)
[9] = biological target: T5, Heat shock factor protein 1 (Mus musculus, UniProt P38532); experiment: inhibition of MG132-induced HSE-luciferase signal, confirmation, cell-based, NIH3T3, luminescence, dose retest (AID 2382); type: functional;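 also: NIH3T3 fibroblasts with HSF1-driven luciferase reporter stressed by proteasome inhibitor MG132; luminescence from HSF1-driven luciferase expression after 8 hours of MG132 stress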
T5 sequence (P38532 whole entry): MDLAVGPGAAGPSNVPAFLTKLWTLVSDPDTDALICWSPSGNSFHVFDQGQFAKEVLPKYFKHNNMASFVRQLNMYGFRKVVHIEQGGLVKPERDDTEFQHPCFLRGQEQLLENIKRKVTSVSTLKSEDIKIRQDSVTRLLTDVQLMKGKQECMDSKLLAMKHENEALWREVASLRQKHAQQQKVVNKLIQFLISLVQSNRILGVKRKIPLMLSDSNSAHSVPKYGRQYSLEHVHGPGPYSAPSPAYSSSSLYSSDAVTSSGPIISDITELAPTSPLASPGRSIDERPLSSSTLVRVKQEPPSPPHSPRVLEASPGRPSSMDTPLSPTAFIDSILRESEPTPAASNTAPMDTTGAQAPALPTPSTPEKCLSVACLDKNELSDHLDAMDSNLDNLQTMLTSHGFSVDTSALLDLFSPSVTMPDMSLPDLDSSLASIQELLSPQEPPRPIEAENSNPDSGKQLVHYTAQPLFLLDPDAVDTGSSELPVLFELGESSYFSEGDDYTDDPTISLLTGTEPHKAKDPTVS

[10] = Luminescence Cell-Based Dose Confirmation HTS to Identify Activators of 5'UTR Stem-Loop Driven Alpha-Synuclein mRNA Translation in H4 Neuroglioblastoma Cells. [Related pubchem assays: 1829 (Project Summary), 1814 (Primary HTS)]; type: functional
[11] = Luminescence Cell-Based Dose Response HTS to Identify Activators of Luciferase Translation or Activity in H4 […] Cells. [Related pubchem assays: 1829 (Project Summary), 1814 (Primary HTS)]; type: functional
H4 = experiment: Luminescence Cell-Based Dose Response HTS to Identify Activators of 5'UTR Stem-Loop Driven Prion Protein mRNA Translation in H4 Neuroglioblastoma Cells. [Related pubchem assays: 1829 (Project Summary), 1814 (Primary HTS)]; type: functional; conditions: Homo sapiens
Escherichia coli = experiment: microbe, parasite or virus in culture
Nonstructural protein 1 = Nonstructural protein 1 (Influenza A virus, UniProt Q194T2); type: functional, Influenza A virus (A/California/07/2009(H1N1))
Cytochrome P450 2C19 = Cytochrome P450 2C19 (Homo sapiens, UniProt P33261); experiment: Cytochrome panel assay with activity outcomes. Panel member name: p450-cyp2c19 Compounds with AC50 equal or less than 10 uM are considered active; type: functional
Cytochrome P450 1A2 = biological target: T6, Cytochrome P450 1A2 (Homo sapiens, UniProt P05177);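 also: PubChem cytochrome P450 panel assay, CYP1A2 panel member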
T6 sequence (P05177 whole entry): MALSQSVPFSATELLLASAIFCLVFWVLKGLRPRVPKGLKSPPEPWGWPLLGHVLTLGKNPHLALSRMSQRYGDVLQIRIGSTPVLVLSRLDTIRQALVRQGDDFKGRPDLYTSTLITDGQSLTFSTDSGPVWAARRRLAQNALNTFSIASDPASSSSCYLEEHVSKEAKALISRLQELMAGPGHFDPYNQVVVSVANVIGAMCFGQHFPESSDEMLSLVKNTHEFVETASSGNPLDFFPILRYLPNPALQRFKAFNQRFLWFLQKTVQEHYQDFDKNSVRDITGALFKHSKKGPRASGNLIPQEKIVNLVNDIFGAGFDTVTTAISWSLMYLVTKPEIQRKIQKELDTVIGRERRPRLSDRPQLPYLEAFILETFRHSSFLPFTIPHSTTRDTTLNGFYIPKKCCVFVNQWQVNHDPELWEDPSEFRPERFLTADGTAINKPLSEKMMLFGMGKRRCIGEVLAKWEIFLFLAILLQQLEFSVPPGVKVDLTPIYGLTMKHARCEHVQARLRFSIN

Phospholipase A2 = Phospholipase A2 (Homo sapiens, UniProt P04054); type: functional;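 also: confirmatory dose-response counterscreen on phospholipase A2, testing hits that came from an ultra-high-throughput screen for ATG4B inhibitors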
Cysteine protease ATG4B = biological target: T7, Cysteine protease ATG4B (Homo sapiens, UniProt Q9Y4P1); type: functional;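 also: Fluorescence-based dose-response confirmation assay measuring inhibition of ATG4B activity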
T7 sequence (Q9Y4P1 whole entry): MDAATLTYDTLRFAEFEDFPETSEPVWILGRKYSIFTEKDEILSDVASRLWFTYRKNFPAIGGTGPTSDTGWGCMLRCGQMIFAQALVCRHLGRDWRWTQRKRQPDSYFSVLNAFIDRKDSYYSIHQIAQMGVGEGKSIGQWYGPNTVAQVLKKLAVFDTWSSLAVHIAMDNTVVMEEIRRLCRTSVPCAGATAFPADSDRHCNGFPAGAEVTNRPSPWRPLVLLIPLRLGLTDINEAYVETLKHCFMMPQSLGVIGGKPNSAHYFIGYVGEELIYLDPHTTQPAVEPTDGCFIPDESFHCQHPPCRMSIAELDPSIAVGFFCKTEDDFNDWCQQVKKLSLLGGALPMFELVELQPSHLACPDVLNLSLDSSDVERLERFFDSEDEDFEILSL

Chain of Cytochrome P450 3A4 (P08684 whole entry): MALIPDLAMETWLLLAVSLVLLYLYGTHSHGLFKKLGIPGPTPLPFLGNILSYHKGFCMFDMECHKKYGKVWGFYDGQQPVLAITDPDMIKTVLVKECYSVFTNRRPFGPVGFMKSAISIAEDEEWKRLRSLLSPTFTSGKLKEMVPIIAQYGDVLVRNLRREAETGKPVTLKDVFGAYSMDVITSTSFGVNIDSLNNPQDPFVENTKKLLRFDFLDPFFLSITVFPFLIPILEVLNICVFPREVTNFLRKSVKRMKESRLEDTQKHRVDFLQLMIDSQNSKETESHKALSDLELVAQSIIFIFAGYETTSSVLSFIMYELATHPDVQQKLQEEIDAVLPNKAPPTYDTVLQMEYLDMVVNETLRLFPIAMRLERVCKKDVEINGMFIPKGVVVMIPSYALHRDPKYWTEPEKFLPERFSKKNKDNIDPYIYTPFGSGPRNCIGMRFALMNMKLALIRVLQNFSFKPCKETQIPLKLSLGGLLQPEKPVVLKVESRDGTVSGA
Chain of Cytochrome P450 2C9 (P11712 whole entry): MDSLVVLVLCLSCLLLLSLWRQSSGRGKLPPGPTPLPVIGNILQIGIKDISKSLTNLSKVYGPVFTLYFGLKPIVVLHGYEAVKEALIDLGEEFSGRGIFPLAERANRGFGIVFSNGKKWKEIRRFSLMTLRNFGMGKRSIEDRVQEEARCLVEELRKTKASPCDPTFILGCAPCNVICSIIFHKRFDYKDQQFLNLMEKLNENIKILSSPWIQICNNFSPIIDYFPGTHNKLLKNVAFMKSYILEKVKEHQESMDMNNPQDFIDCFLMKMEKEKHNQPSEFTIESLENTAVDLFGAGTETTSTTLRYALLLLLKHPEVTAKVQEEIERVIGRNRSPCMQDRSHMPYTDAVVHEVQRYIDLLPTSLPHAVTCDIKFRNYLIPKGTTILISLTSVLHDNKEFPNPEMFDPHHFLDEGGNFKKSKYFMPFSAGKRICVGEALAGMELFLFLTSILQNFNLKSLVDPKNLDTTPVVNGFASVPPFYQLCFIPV
Chain of Phospholipase A2 (P04054 whole entry): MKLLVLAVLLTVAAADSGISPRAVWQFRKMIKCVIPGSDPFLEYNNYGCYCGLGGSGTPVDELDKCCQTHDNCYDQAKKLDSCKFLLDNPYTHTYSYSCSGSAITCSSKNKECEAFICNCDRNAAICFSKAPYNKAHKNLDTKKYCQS
Chain of Cytochrome P450 2C19 (P33261 whole entry): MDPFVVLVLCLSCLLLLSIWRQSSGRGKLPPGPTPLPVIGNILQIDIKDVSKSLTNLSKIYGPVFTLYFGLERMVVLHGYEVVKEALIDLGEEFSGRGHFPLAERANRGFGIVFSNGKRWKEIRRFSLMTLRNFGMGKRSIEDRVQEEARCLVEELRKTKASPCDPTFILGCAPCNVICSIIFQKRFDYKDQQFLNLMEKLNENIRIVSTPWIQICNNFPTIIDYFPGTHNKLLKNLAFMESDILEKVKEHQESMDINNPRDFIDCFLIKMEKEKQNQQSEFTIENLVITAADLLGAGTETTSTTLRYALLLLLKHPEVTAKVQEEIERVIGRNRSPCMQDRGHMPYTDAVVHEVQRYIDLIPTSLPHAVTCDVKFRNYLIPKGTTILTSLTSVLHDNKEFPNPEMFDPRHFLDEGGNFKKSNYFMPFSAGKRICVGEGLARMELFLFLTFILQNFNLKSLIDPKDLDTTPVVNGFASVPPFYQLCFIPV
Chain of Melanocortin receptor 4 (P32245 whole entry): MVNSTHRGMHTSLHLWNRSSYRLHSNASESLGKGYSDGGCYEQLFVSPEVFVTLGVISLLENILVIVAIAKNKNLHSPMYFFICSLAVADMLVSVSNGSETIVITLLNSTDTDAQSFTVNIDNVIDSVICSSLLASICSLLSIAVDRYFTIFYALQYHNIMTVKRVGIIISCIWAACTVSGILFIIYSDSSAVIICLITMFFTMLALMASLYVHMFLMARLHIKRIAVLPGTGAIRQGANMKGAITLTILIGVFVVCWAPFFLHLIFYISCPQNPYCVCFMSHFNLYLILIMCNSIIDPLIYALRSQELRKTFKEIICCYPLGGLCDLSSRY
Chain of Nonstructural protein 1 (Q194T2 whole entry): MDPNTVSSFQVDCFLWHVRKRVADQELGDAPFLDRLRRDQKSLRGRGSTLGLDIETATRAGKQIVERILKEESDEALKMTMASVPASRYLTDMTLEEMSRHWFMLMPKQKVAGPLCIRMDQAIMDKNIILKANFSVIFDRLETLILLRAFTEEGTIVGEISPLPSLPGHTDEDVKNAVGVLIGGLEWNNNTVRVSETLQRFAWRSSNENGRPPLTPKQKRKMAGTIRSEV

With `COc1ccc(S(=O)(=O)N2N=C(C)Oc3ccccc3C2=O)cc1` the IC50 [1] was > 80 µM (inactive).
For `COc1cc2nc(Nc3ccc(C)c(Cl)c3)nc(N)c2cc1OC`, the AC50 [2] was 6.52 µM (active), the CC50 [3] was 3.77 µM (active) and the EC50 (Melanocortin receptor 4) was > 89.2 µM (inactive). For the same compound, the IC50 [4] was 5.71 µM (active), the AC50 [5] was 9.23 µM (active) and the IC50 [6] was 8.57 µM (active). The IC50 (Bcl-2-related protein A1) was 18.7 µM (active).
For `Cc1c(C(=O)N/N=C/c2ccc(Cl)cc2)[nH]c2ccc(Cl)cc12`, the IC50 [1] was > 80 µM (inactive), the EC50 (Streptococcus) was 10.9 µM (active) and the EC50 [7] was 2.61 µM (active). The EC50 (Streptokinase A) was > 150 µM (not active).
With `Oc1ccc(/C=N/n2c(S)nnc2-c2ccccc2)cc1Br` the AC50 [8] was 11.8 µM (active).
For `Oc1ccc(/C=N/n2c(-c3ccccc3)n[nH]c2=S)cc1`, the AC50 [8] was 4.2 µM (active).
With `O=C(c1ccccc1F)c1cn(Cc2ccccc2)c2ccccc12` the AC50 (Cytochrome P450 3A4) was “inconclusive” and the AC50 (Cytochrome P450 2C9) was 35.5 µM (inconclusive).
For `COC(=O)Cc1cc(O)n2nc(C)c(-c3ccccc3)c2n1`, the AC50 (Cytochrome P450 3A4) was “inconclusive”.
With `O=C(c1cn(Cc2ccccc2)nc1-c1ccccc1)N1CCN(c2ccccn2)CC1` the IC50 [1] was > 80 µM (inactive).
For `Cc1ccc(N2CN=c3s/c(=C\c4ccccn4)c(=O)n3C2)cc1`, the EC50 [9] was > 195 µM (not active), the EC50 [10] was > 120 µM (not active) and the EC50 [11] was 29.5 µM (active). For the same compound, the AC50 [8] was 3.58 µM (active) and the EC50 (H4) was > 120 µM (not active).
With `Cc1cccc(/C=N/NC(=O)c2cc(C3CC3)nc3ccccc23)n1` the AC50 (Escherichia coli) was 37.9 µM (active).
For `COC(=O)C(C)Oc1cc(C)cc2oc(=O)c3c(c12)CCCC3` (stereo not given), the AC50 (Escherichia coli) was 28.2 µM (active).
With `O=C(c1ccc(-c2cc(O)c3ncccc3c2)cc1)N1CCNCC1` the IC50 [4] was 3.14 µM (active), the IC50 (Nonstructural protein 1) was 9.74 µM (active) and the AC50 [5] was 1.66 µM (active). For the same compound, the IC50 [6] was 3.61 µM (active) and the IC50 (Bcl-2-related protein A1) was 7 µM (active).
For `O=C(/C=C/c1ccccc1)Nc1cccnc1Oc1ccccc1F`, the AC50 [8] was 11.1 µM (active).
For `CC(=O)O[C@H]1CC[C@@]2(C)[C@@H](CC[C@H]3[C@H]2CC(=O)[C@]2(C)[C@@H]3C[C@@H](N3CC3)[C@H]2C(C)=O)C1`, the AC50 (Cytochrome P450 2C19) was “inconclusive”, the AC50 (Cytochrome P450 3A4) was “inconclusive” and the AC50 (Cytochrome P450 1A2) was 0.0398 µM (inconclusive).
In the case of `CC(=O)Oc1ccc(C(=O)Cc2ccccn2)c(O)c1`, the AC50 (Escherichia coli) is reported as 27.9 µM (active).
In the case of `O=C(Oc1c(-c2ccccc2)c(=O)n2c3c(cccc13)CC2)c1ccc(F)cc1`, the IC50 (Phospholipase A2) is reported as 10.9 µM (active) and the IC50 (Cysteine protease ATG4B) is reported as 14.1 µM (active).
In the case of `C=CCN1CCc2c(cc(O)c(O)c2Cl)[C@H](c2ccccc2)C1`, the AC50 (Cytochrome P450 3A4) is reported as “inconclusive”, the AC50 (Cytochrome P450 2C9) is reported as 31.6 µM (inconclusive) and the AC50 (Cytochrome P450 1A2) is reported as 20 µM (inconclusive).
